In PubChem BioAssay (NCI):
“And” between values parts separate entries of the source, which are not always exact repeats. Identical values can stand only once.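 Interpolation was linear, between the two tested concentrations surrounding the appropriate level; five concentrations were tested over 48 hours in 96-well plates. Here, GI50 denotes the concentration required for 50% inhibition of growth. Definition used: TGI = concentration required for complete inhibition of growth.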

Tested on: UACC-62 melanoma
Assay: inhibition of tumour cell growth, NCI panel, 48 h

First: C=CCCCCC/C=C\[C@H](O)C#CC#C/C=C/CO
Second: CCCCCCCCCCCCCC1=NC(C)(C)CN1C(C)C
The GI50 of the first is 15-fold higher: 26.2 µM for the first, 1.74 µM for the second.

Compared with `O=C1NC(=O)C(c2cnc3ccccn23)=C1c1cn2c3c(cc(F)cc13)CN(C(=O)N1CCCCC1)CC2`, `COc1ccc(CN2C(=O)/C(=C\C(=O)c3ccc(OCCN4CCCCC4)cc3)c3ccccc32)cc1` is 4.6-fold lower in GI50: 7.72 µM for the first, 1.67 µM for the second.

First: Clc1nc2ccccc2nc1CI
Second: O=C(CNc1ccc(Cl)cc1)Nc1ccc(-c2nc3ccccc3s2)cc1
The GI50 of the first is 1.6-fold higher: 4.32 µM for the first, 2.63 µM for the second.

Compared with `Cn1nc(N)c2cc([C@@H]3Nc4ccc5[nH]ncc5c4[C@H]4C5CCC(C5)[C@@H]34)ccc21` (some centres undefined), `CCN(CC)c1ccc2c(c1)OC(N)=C(C#N)C2c1cc(OC)c2c(c1)OCO2` (centres undefined) is lower in GI50: 0.425 µM for the first, under 0.0184 µM for the second.

Going from `O=C(OC(CNc1cc(=O)n(Cc2ccccc2)c(=O)n1Cc1ccccc1)CN1CCCC1)c1ccccc1` (centres undefined) to `COc1ccc(C(C)=O)cc1N1C(=O)C2C(C1=O)C1(c3ccccc3)C(=O)C2(c2ccccc2)C(c2ccc(C)cc2)=C1c1ccc(C)cc1` (centres undefined), the GI50 rises from 89.4 µM to over 100 µM.

Going from `CCOC(=O)CCCn1c(SC)nc2[nH]cc(-c3ccccc3)c2c1=O` to `CCn1c(-c2nonc2N)nc2c(C#CC(C)(C)O)nc(OC[C@H](N)c3ccccc3)cc21`, the GI50 falls from 11.2 µM to 4.24 µM (2.6-fold).

`[Cl][Hg][c]1cc(Br)cc(Br)c1` and `N#CC(=C1C=CC(=NO)C=C1)c1ccccc1` are within 1.5-fold of each other in GI50: 1.62 µM for the first, 1.49 µM for the second.

Going from `CCN1CCN(C(c2ccc(C(F)(F)F)cc2)c2ccc3cccnc3c2O)CC1` (centres undefined) to `COc1ccc(/C=C(/C(=O)N2CCN(c3ccccc3)CC2)c2cc(OC)c(OC)c(OC)c2)cc1O`, the GI50 falls from 1.98 µM to 0.332 µM (6-fold).

Compared with `CCC(C)n1ncn(-c2ccc(N3CCN(c4ccc(OCC5COC(Cn6cncn6)(c6ccc(Cl)cc6Cl)O5)cc4)CC3)cc2)c1=O` (centres undefined), `CC(C)CCN1c2nc(Nc3cc(F)c(O)c(F)c3)ncc2N(C)C(=O)C1C` (centres undefined) is 3.7-fold lower in GI50: 17.6 µM for the first, 4.75 µM for the second.

`CCCCCCCCCCCCOC1C(C(COC2OC(C3COC(C)(C)O3)C3OC(C)(C)OC23)NC(=O)Nc2ccc(C(=O)O)cc2)OC2OC(C)(C)OC21` (centres undefined) gave a GI50 of 1.8 µM.

Compared with `C=CCCCCC/C=C\[C@H](O)C#CC#C/C=C/CO`, `CCCCCCCCCCCCCC1=NC(C)(C)CN1C(C)C` is lower in TGI: over 100 µM for the first, 3.2 µM for the second.

First: O=C1NC(=O)C(c2cnc3ccccn23)=C1c1cn2c3c(cc(F)cc13)CN(C(=O)N1CCCCC1)CC2
Second: COc1ccc(CN2C(=O)/C(=C\C(=O)c3ccc(OCCN4CCCCC4)cc3)c3ccccc32)cc1
The TGI of the first is 7.3-fold higher: 22.9 µM for the first, 3.13 µM for the second.

Going from `Clc1nc2ccccc2nc1CI` to `O=C(CNc1ccc(Cl)cc1)Nc1ccc(-c2nc3ccccc3s2)cc1`, the TGI falls from 16.5 µM to 8.3 µM (2-fold).

`Cn1nc(N)c2cc([C@@H]3Nc4ccc5[nH]ncc5c4[C@H]4C5CCC(C5)[C@@H]34)ccc21` (some centres undefined) and `CCN(CC)c1ccc2c(c1)OC(N)=C(C#N)C2c1cc(OC)c2c(c1)OCO2` (centres undefined) are within 1.5-fold of each other in TGI: 17.7 µM for the first, 13.5 µM for the second.

Compared with `O=C(O)C1C2C=CC(O2)C1C(=O)NCc1ccccn1` (centres undefined), `CCOC(=O)CCCn1c(SC)nc2[nH]cc(-c3ccccc3)c2c1=O` is lower in TGI: over 100 µM for the first, 25.1 µM for the second.

`O=C(OC(CNc1cc(=O)n(Cc2ccccc2)c(=O)n1Cc1ccccc1)CN1CCCC1)c1ccccc1` (centres undefined) and `COc1ccc(C(C)=O)cc1N1C(=O)C2C(C1=O)C1(c3ccccc3)C(=O)C2(c2ccccc2)C(c2ccc(C)cc2)=C1c1ccc(C)cc1` (centres undefined) cannot be ordered by TGI: over 100 µM for the first, over 100 µM for the second.

Compared with `[Cl][Hg][c]1cc(Br)cc(Br)c1`, `N#CC(=C1C=CC(=NO)C=C1)c1ccccc1` is 2.2-fold higher in TGI: 3.42 µM for the first, 7.41 µM for the second.

Compared with `CNC(=O)N(C)N=NCCCl`, `CC(C)CCN1c2nc(Nc3cc(F)c(O)c(F)c3)ncc2N(C)C(=O)C1C` (centres undefined) is lower in TGI: over 100 µM for the first, 23.8 µM for the second.

Compared with `CCN1CCN(C(c2ccc(C(F)(F)F)cc2)c2ccc3cccnc3c2O)CC1` (centres undefined), `COc1ccc(/C=C(/C(=O)N2CCN(c3ccccc3)CC2)c2cc(OC)c(OC)c(OC)c2)cc1O` is higher in TGI: 10.4 µM for the first, over 100 µM for the second.

First: CCC(C)n1ncn(-c2ccc(N3CCN(c4ccc(OCC5COC(Cn6cncn6)(c6ccc(Cl)cc6Cl)O5)cc4)CC3)cc2)c1=O (centres undefined)
Second: CCn1c(-c2nonc2N)nc2c(C#CC(C)(C)O)nc(OC[C@H](N)c3ccccc3)cc21
The TGI of the first is higher: over 100 µM for the first, 8.08 µM for the second.

Work on `CCCCCCCCCCCCOC1C(C(COC2OC(C3COC(C)(C)O3)C3OC(C)(C)OC23)NC(=O)Nc2ccc(C(=O)O)cc2)OC2OC(C)(C)OC21` (centres undefined) yielded a TGI of 3.56 µM.

`O/N=C/C1C(OCc2ccccc2)C(OCc2ccccc2)C(OCc2ccccc2)CN1Cc1ccccc1` (centres undefined) was tested, and the TGI was 30.5 µM and > 100 µM.
With `CCN(CC)CCCC(CNc1ccnc2cc(Cl)ccc12)c1ccc(Cl)cc1` (centres undefined) the TGI was 3.52 µM and 3.5 µM.
With `O=C1c2cccc(NCCCNCCO)c2C(=O)c2cccc(NCCCNCCO)c21` the TGI was 3.25 µM and 4.33 µM.
`Cc1nc2c(-c3cnc(N)nc3)nc(N3CCOCC3)nc2n1C(C)C` was tested, and the TGI was 0.334 µM and 0.305 µM.
`CCN(CC)CCC(CNc1ccnc2cc(Cl)ccc12)c1ccc(OC)cc1` (centres undefined) was tested, and the TGI was 5.02 µM and 4.01 µM.

For `CCN(CC)CCCC(CNc1ccnc2cc(Cl)ccc12)c1ccc(Cl)cc1` (centres undefined), the GI50 was 1.9 µM and 1.86 µM.
With `CCN(CC)CCC(CNc1ccnc2cc(Cl)ccc12)c1ccc(OC)cc1` (centres undefined) the GI50 was 2.31 µM and 1.86 µM.

Tested on: DU-145 prostate
Assay: inhibition of tumour cell growth, NCI panel, 48 h

Going from `C=CCCCCC/C=C\[C@H](O)C#CC#C/C=C/CO` to `O=C(OC(CNc1cc(=O)n(Cc2ccccc2)c(=O)n1Cc1ccccc1)CN1CCCC1)c1ccccc1` (centres undefined), the GI50 falls from 66.3 µM to 1.9 µM (35-fold).

Going from `O=C1NC(=O)C(c2cnc3ccccn23)=C1c1cn2c3c(cc(F)cc13)CN(C(=O)N1CCCCC1)CC2` to `Cn1nc(N)c2cc([C@@H]3Nc4ccc5[nH]ncc5c4[C@H]4C5CCC(C5)[C@@H]34)ccc21` (some centres undefined), the GI50 falls from 12.7 µM to 0.438 µM (29-fold).

For `Clc1nc2ccccc2nc1CI`, the GI50 was 17.1 µM.

`C=CCCCCC/C=C\[C@H](O)C#CC#C/C=C/CO` and `O=C(O)C1C2C=CC(O2)C1C(=O)NCc1ccccn1` (centres undefined) cannot be ordered by TGI: over 100 µM for the first, over 100 µM for the second.

`O/N=C/C1C(OCc2ccccc2)C(OCc2ccccc2)C(OCc2ccccc2)CN1Cc1ccccc1` (centres undefined) and `O=C(OC(CNc1cc(=O)n(Cc2ccccc2)c(=O)n1Cc1ccccc1)CN1CCCC1)c1ccccc1` (centres undefined) cannot be ordered by TGI: over 100 µM for the first, over 100 µM for the second.

`O=C1NC(=O)C(c2cnc3ccccn23)=C1c1cn2c3c(cc(F)cc13)CN(C(=O)N1CCCCC1)CC2` and `Cn1nc(N)c2cc([C@@H]3Nc4ccc5[nH]ncc5c4[C@H]4C5CCC(C5)[C@@H]34)ccc21` (some centres undefined) are within 1.5-fold of each other in TGI: 39.7 µM for the first, 37.7 µM for the second.

For `Clc1nc2ccccc2nc1CI`, the TGI was 30.8 µM.
